The source made the active and inactive calls. No cut-off for these calls is given here.
What was measured:
Candida albicans = experiment: Antibiofilm activity against Candida albicans assessed as reduction in biofilm formation at 100 uM incubated for 48 hrs by XTT biofilm assay; type: functional, organism-based
Staphylococcus aureus = experiment: Antimicrobial activity against Staphylococcus aureus ATCC 12600 assessed as zone of inhibition at 60 ug incubated overnight by agar well diffusion assay; type: functional; settings: read-out: DIZ
[1] = system: Staphylococcus epidermidis; experiment: Antimicrobial activity against Staphylococcus epidermidis ATCC 14990 assessed as zone of inhibition at 60 ug incubated overnight by agar well diffusion assay; type: functional; settings: read-out: DIZ

SMILES	Activity (Candida albicans)	zone of inhibition at 60 µg/disc (Staphylococcus aureus) [mm]	zone of inhibition at 60 µg/disc [1] [mm]
O=c1cc(CCCCCCCCCO)[nH]c2ccccc12	inactive	0	0
CCCCCCCCCCc1cc(=O)c2ccccc2[nH]1	Active	10	12
CCCCCCCCc1cc(=O)c2ccccc2[nH]1	Active	11	12
O=c1cc(CCCCCCCCO)[nH]c2ccccc12		0	0
CCCCCCCCCc1cc(=O)c2ccccc2[nH]1	Active	12	12
CC(=O)OCCCCCCCCc1cc(=O)c2ccccc2[nH]1		9	9
CCCCCCCc1cc(=O)c2ccccc2[nH]1	Active	13	13
CC(=O)OCCCCCCCCCc1cc(=O)c2ccccc2[nH]1		11	11
CC(=O)OCCCCCCCCCCc1cc(=O)c2ccccc2[nH]1		10	10
O=c1cc(CCCCCCCCCCO)[nH]c2ccccc12	inactive	0	0
CCCCCc1cc(O)c2ccccc2n1	Active	13	14
CC1(C)S[C@@H]2[C@H](NC(=O)Cc3ccccc3)C(=O)N2[C@H]1C(=O)O [PENICILLIN G]		41	38
CC(=O)OCCCCCCCc1cc(=O)c2ccccc2[nH]1		8	7
O=c1cc(CCCCCCCO)[nH]c2ccccc12	inactive	0	0
